We go through 1 compound from US11612595B2, “Compositions and methods for treating rheumatoid arthritis” (Generos Biopharma Ltd., priority 2017, dated 2023).

The structures appear in SMILES notation.

Data set [1] can be described thus: weight changes in mouse CIA model. The data set is classed as in vivo, DBA/1J mice. Particulars: 5 mg/kg i.p. daily. Here is the method: FIGS. 7A and 78 show graphs depicting weight changes in five groups of mouse CIA models under different treatment schemes. DBA/1 mice were randomly divided into 9 groups with 10 mice each group. On day 0 and 21, all of them except blank control group were inoculated with 50 ul collagen plus CFA mixture subcutaneously at back flank near tail. The weights of all 90 mice were monitored 3 times a week throughout the experiment.
(§1) Eight of nine groups (10 mice in each group) of male DBA/1J mice (age 9-10 weeks. H-2q haplotype) were subject to CIA model induction and then to different treatment schemes. The group of mice without CIA model induction was used as a control (Blank). Specifically, Bovine type II collagen (Chondrex) was mixed with Freund's complete adjuvant (CFA) (Sigma) and injected s.c. to flank near tail of the mice twice (the second injection was made 21 days after the first injection) to create CIA model mice. The eight groups of CIA model mice were separated into four prophylactic groups and four therapeutic groups, with each group subjected to different treatments.
(§2) In the four prophylactic groups, daily treatments started from the date when the first CIA induction injection was made. The first of the four prophylactic groups of CIA model mice were treated with 30% PEG300 (containing 4% DMSO-all 30% PEG300 in the application contains 4% DMSO) solution via intraperitoneal injection as controls (Model). The second of the four prophylactic groups of CIA model mice were treated with nicotinohydrazide (Calbiochem) 10 mg/kg in 30% PEG300 solution via intraperitoneal injection (573108 10 mg/kg). The third of the four prophylactic groups of CIA model mice were treated with nicotinohydrazide (Calbiochem) 5 mg/kg in 30% PEG300 solution via intraperitoneal injection (573108 5 mg/kg). The last of the four prophylactic groups of CIA model mice were treated with Tofacitinib (Selleckchem) 5 mg/kg in 30% PEG300 solution via intraperitoneal injection (Tofacitinib 5 mg/kg).
(§3) In the four therapeutic groups, daily treatments started from the date when the second CIA induction injection was made. The first of the four therapeutic groups of CIA model mice were treated with 30% PEG300 solution via intraperitoneal injection as controls (Model). The second of the four therapeutic groups of CIA model mice were treated with nicotinohydrazide (Calbiochem) 10 mg/kg in 30% PEG300 solution via intraperitoncal injection (573108 10 mg/kg). The third of the four therapeutic groups of CIA model mice were treated with nicotinohydrazide (Calbiochem) 5 mg/kg in 30% PEG300 solution via intraperitoneal injection (573108 5 mg/kg). The last of the four therapeutic groups of CIA model mice were treated with Tofacitinib (Selleckchem) 5 mg/kg in 30% PEG300 solution via intraperitoncal injection (Tofacitinib 5 mg/kg).
(§4) The inventors collected data of the weight, and clinical scores of the mice every 2-3 days and performed statistic analysis. The method used in the statistic analysis was Student's t test, unpaired, two-tailed analysis.

Data set [2] concerns collagen-induced arthritis (CIA) model mice. Briefly: collagen-induced arthritis (CIA) model mice, clinical scores. The format is in vivo, DBA/1J mice. Set-up: key to Pairwise analysis of the difference between groups (clinical scores), vs Model / Pairwise analysis of the difference between groups (clinical scores), S5i 5 mpk vs S5i 10 mpk: p values from pairwise comparisons. To be noted: for clinical scores compared to Model: 5 mg/kg i.p. daily; for Pairwise analysis of the difference between groups (clinical scores), vs Model: 5 mpk.
From the text: FIGS. 8A and 8B show graphs depicting clinical score changes in four groups of CIA mouse models under different treatment schemes. In FIG. 8A, different chemicals (DMSO as control for Model group, blank group is left untreated) were daily administered intraperitoneally at the indicated doses from the first injection of the collagen agent. In FIG. 8B, different chemicals were daily administered intraperitoneally from the second injection of collagen agent at the indicated doses. Clinical scores were given double-blindly according to the scoring scheme every 2 days.
FIGS. 9A and 9B show graphs of clinical scores at day 44 for each group, the overall difference analyzed by ANOVA is significant p<0.0001, while the p value between Model and each individual group is labeled above the bar * p<0.05, ** p<0.01.
as §1, §2, §3, §4
The clinical scores were derived according to the scheme in Table 2.

As to `C[C@@H]1CCN(C(=O)CC#N)C[C@@H]1N(C)c1ncnc2[nH]ccc12` [Tofacitinib], the “trend of weight changes, p vs Model” value in data set [1] (prophylactic groups) was found to be 0.0130; in data set [1] (therapeutic groups), 0.0005. The “clinical scores compared to Model” value in data set [2] (prophylactic groups) and in data set [2] (therapeutic groups) was “reduced clinical scores” in each case. For the same compound, the “Pairwise analysis of the difference between groups (clinical scores), vs Model” value came to 0.0949 in data set [2] (prophylactic groups, Day 28); 0.0496 in data set [2] (prophylactic groups, Day 30); 0.0610 in data set [2] (prophylactic groups, Day 32); 0.0064 in data set [2] (prophylactic groups, Day 35); 0.0178 in data set [2] (prophylactic groups, Day 37); 0.0010 in data set [2] (prophylactic groups, Day 39). The “Pairwise analysis of the difference between groups (clinical scores), vs Model” value in data set [2] (prophylactic groups, Day 42) amounted to 0.0015; in data set [2] (prophylactic groups, Day 44), 0.0026; in data set [2] (therapeutic groups, Day 28), 0.0258; in data set [2] (therapeutic groups, Day 30), 0.0471; in data set [2] (therapeutic groups, Day 32) it was 0.0138; in data set [2] (therapeutic groups, Day 35), 0.0163. Besides, the “Pairwise analysis of the difference between groups (clinical scores), vs Model” value turned out to be 0.0170 in data set [2] (therapeutic groups, Day 37); 0.0153 in data set [2] (therapeutic groups, Day 39); 0.0081 in data set [2] (therapeutic groups, Day 42); 0.0044 in data set [2] (therapeutic groups, Day 44).
